Measurements from ChEMBL document CHEMBL4680090 (J Med Chem, 2016).
In brackets after ≈: the same amount, converted by molar mass.

How the values were obtained:
in vitro = conditions: human, liver microsomes
physchem [1] = conditions: octanol/water, pH 7.4
[2] = biological target: T1, Voltage-gated inwardly rectifying potassium channel KCNH2 (Homo sapiens, UniProt Q12809)
human BCRP [3] = test: in vitro; conditions: dog
physchem [4] = conditions: buffer, pH 6.5
[5] = human, hepatocytes, 4 h, 1 µM
Aldehyde oxidase [6] = biological target: T2, Aldehyde oxidase (Homo sapiens, UniProt Q06278); test: Drug metabolism in human liver S9 fractions assessed as AO-mediated oxidation at fluoro-pyrrolopyridine motif at 10 uM incubated for 60 mins in absence of CYP cofactor NADP by HPLC-UV chromatography; assay type: ADME, subcellular; conditions: s9, 1 h
T2 sequence (Q06278 whole entry): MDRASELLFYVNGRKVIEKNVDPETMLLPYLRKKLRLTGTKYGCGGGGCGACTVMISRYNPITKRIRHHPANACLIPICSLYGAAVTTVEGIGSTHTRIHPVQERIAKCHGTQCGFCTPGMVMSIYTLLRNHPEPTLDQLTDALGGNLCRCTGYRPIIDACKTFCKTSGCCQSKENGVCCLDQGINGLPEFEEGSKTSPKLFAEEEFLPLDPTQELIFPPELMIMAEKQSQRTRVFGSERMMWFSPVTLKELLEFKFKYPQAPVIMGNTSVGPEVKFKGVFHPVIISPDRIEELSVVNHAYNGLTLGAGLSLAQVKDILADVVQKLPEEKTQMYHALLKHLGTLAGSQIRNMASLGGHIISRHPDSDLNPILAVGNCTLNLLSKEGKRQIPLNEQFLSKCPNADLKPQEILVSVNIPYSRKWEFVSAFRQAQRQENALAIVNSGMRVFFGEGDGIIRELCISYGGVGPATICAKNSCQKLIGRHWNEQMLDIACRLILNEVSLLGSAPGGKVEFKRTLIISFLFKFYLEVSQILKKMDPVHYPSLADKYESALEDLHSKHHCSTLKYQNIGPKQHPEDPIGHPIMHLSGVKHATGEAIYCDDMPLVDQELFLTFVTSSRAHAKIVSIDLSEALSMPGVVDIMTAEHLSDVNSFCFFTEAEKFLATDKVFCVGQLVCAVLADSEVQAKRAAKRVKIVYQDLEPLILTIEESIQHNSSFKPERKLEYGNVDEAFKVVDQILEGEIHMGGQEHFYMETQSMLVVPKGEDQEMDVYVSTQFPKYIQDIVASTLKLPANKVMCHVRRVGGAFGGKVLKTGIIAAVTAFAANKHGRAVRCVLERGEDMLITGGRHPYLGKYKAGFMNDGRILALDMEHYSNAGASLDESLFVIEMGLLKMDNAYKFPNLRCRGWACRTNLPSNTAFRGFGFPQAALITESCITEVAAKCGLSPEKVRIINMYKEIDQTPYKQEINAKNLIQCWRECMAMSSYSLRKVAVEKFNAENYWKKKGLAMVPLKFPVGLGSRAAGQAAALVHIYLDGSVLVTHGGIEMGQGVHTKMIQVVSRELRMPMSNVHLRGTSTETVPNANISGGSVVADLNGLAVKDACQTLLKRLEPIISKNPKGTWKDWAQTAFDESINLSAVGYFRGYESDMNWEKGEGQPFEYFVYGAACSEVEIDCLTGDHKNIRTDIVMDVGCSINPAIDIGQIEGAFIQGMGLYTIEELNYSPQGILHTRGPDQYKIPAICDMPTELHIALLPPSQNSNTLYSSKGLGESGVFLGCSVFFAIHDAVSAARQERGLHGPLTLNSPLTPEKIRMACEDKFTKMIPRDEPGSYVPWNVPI

[7] = biological target: High affinity nerve growth factor receptor (Homo sapiens, UniProt P04629)
[8] = biological target: BDNF/NT-3 growth factors receptor (Homo sapiens, UniProt Q16620)
Aldehyde oxidase [9] = biological target: T2, Aldehyde oxidase; test: Drug metabolism in human liver S9 fractions assessed as AO-mediated mono-oxidised metabolite formation at 10 uM incubated for 60 mins in absence of CYP cofactor NADP and in presence of 50 uM XO inhibitor allopurinol by HPLC-UV chromatography; assay type: ADME, subcellular; conditions: s9, 1 h
Aldehyde oxidase [10] = biological target: T2, Aldehyde oxidase; test: Drug metabolism in human liver S9 fractions assessed as AO-mediated mono-oxidised metabolite formation at 10 uM incubated for 60 mins in absence of CYP cofactor NADP and in presence of 50 uM AO inhibitor menadione by HPLC-UV chromatography; assay type: ADME, subcellular; conditions: s9, 1 h
Aldehyde oxidase [11] = biological target: T2, Aldehyde oxidase; test: Drug metabolism in human liver S9 fractions assessed as AO-mediated mono-oxidised metabolite formation at 10 uM incubated for 60 mins in absence of CYP cofactor NADP by HPLC-UV chromatography; assay type: ADME, subcellular; conditions: s9, 1 h
MDR1 (P-gp) = test: in vitro; conditions: dog, MDCK-MDR1
human BCRP [12] = test: in vitro; conditions: dog; remark: listed apart in the source
Aldehyde oxidase [13] = biological target: T2, Aldehyde oxidase; test: Drug metabolism in human liver S9 fractions assessed as AO-mediated oxidation at 2-aminopyrimidyl ring at 10 uM incubated for 60 mins in absence of CYP cofactor NADP by HPLC-UV chromatography; assay type: ADME, subcellular; conditions: s9, 1 h
[14] = Oral bioavailability in rat at 3 mg/kg; assay type: ADME, organism-based; conditions: in vivo
[15] = Clearance in rat at 1 mg/kg, iv; assay type: ADME, organism-based; conditions: in vivo
[16] = Half life in rat at 1 mg/kg, iv; assay type: ADME, organism-based; conditions: in vivo
[17] = biological target: T1, Voltage-gated inwardly rectifying potassium channel KCNH2; remark: listed apart in the source
[18] = Volume of distribution in rat at 1 mg/kg, iv; assay type: ADME, organism-based; conditions: in vivo, read-out: Vdss
in vivo = conditions: rat, brain and plasma, po, 100 mg/kg
[19] = Clearance in rat at 1 mg/kg, iv relative to hepatic blood flow; assay type: ADME, organism-based; conditions: in vivo
Aldehyde oxidase [20] = biological target: T2, Aldehyde oxidase; test: Drug metabolism in human liver S9 fractions assessed as AO-mediated oxidation on pyrrolopyrimidine-hinge binding group at 10 uM incubated for 60 mins in absence of CYP cofactor NADP by HPLC-UV chromatography; assay type: ADME, subcellular; conditions: s9, 1 h
Aldehyde oxidase [21] = biological target: T2, Aldehyde oxidase; test: Drug metabolism in human liver S9 fractions assessed as AO-mediated oxidation on central pyridine substituent at 10 uM incubated for 60 mins in absence of CYP cofactor NADP by HPLC-UV chromatography; assay type: ADME, subcellular; conditions: s9, 1 h
[22] = Toxicity in rat assessed as drug tolerability at 400 mg/kg/day during 7 day toxicological study; assay type: organism-based; conditions: in vivo, 168 h
Aldehyde oxidase [23] = biological target: T2, Aldehyde oxidase; test: Drug metabolism in human liver S9 fractions assessed as AO-mediated oxidation on pyrrolopyrimidine-hinge binding group and the central pyridine substituent at 10 uM incubated for 60 mins in absence of CYP cofactor NADP by HPLC-UV chromatography; assay type: ADME, subcellular; conditions: s9, 1 h
Aldehyde oxidase [24] = biological target: T2, Aldehyde oxidase; test: Drug metabolism in human liver S9 fractions assessed as AO-mediated amide hydrolysis at 10 uM incubated for 60 mins in absence of CYP cofactor NADP by HPLC-UV chromatography; assay type: ADME, subcellular; conditions: s9, 1 h
Aldehyde oxidase [25] = biological target: T2, Aldehyde oxidase; test: Drug metabolism in human liver S9 fractions assessed as AO-mediated oxidation on amino-pyrrolopyrimidine hinge binding group and central pyridine substituent at 10 uM incubated for 60 mins in absence of CYP cofactor NADP by HPLC-UV chromatography; assay type: ADME, subcellular; conditions: s9, 1 h

Sequence of High affinity nerve growth factor receptor (P04629 whole entry): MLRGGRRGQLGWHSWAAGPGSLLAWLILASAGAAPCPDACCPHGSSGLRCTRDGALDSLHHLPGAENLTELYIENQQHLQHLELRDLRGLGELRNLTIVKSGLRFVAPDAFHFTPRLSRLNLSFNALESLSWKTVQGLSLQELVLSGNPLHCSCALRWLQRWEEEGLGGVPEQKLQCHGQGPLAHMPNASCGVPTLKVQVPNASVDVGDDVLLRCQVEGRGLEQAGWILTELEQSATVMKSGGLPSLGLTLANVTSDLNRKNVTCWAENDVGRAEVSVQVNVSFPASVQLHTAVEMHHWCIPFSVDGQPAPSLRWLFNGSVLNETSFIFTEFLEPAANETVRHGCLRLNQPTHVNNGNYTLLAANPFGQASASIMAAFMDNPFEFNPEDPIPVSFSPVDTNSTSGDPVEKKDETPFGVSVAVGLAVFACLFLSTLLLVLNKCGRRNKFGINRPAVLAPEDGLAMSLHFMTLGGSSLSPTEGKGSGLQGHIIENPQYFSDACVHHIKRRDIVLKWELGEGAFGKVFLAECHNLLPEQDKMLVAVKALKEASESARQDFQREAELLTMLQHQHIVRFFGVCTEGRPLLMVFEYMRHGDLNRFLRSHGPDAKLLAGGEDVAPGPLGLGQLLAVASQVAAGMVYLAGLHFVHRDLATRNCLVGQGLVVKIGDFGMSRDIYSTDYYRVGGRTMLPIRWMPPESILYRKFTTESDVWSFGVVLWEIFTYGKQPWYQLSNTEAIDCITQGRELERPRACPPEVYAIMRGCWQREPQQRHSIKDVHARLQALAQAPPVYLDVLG
T1 sequence (Q12809 whole entry): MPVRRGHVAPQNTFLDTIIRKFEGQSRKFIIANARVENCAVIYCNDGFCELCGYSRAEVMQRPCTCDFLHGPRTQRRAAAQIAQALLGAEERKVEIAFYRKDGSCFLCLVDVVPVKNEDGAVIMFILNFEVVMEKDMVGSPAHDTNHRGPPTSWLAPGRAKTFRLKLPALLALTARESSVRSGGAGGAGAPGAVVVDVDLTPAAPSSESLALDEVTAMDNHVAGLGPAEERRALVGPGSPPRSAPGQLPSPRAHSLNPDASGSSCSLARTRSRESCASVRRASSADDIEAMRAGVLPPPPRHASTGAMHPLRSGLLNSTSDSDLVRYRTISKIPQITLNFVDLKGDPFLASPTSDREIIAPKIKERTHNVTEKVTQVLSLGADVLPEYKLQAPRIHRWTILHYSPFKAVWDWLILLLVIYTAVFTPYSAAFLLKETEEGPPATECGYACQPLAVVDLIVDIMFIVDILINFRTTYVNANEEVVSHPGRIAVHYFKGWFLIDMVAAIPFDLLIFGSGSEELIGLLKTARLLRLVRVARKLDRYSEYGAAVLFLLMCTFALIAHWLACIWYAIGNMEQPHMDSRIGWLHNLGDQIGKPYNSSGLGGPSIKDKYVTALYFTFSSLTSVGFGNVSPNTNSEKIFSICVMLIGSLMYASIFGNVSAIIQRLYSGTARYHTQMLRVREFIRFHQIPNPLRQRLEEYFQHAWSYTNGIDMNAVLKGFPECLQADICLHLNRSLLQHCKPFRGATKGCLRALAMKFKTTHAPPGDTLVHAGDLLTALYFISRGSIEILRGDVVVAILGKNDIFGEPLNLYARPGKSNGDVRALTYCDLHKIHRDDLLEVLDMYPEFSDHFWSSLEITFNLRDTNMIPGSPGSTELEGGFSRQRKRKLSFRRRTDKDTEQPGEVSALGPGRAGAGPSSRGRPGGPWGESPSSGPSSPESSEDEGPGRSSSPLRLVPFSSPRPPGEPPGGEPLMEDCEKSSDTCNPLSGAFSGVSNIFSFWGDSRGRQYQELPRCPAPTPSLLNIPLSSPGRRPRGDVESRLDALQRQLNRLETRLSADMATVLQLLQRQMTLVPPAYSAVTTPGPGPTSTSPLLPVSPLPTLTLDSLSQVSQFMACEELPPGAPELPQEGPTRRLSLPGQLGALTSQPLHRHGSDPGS
Sequence of BDNF/NT-3 growth factors receptor (Q16620 whole entry): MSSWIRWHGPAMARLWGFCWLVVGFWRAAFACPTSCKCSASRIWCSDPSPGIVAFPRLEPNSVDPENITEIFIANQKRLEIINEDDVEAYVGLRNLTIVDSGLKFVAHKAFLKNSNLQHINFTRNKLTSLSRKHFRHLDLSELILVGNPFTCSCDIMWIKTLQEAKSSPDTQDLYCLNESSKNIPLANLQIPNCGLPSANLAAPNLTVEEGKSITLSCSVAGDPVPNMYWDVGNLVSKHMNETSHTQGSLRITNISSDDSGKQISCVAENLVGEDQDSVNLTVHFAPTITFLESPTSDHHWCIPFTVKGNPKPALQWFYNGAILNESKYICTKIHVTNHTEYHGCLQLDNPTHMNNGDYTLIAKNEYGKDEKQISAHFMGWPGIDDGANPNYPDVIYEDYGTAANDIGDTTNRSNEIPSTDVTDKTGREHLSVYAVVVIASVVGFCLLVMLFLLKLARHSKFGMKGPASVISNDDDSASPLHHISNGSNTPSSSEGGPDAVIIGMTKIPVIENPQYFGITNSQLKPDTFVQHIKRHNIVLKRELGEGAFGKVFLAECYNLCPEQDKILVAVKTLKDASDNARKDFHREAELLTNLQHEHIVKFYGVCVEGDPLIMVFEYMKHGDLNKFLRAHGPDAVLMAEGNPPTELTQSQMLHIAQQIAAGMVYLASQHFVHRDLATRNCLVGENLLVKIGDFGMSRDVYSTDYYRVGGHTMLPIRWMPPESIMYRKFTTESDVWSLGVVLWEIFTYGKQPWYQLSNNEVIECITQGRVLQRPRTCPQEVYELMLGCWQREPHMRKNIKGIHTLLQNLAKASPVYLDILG

SMILES | microsomal CLint at 1 h, 1 µM (in vitro) | logD (physchem [1]) | Ki [2] | Papp A→B (human BCRP [3]) | solubility (physchem [4]) | CLH(app) [5] | IC50 [7] | IC50 [8] | efflux ratio (MDR1 (P-gp)) | further results
CC(C)(CO)n1cc(C(=O)c2cncc(NC(=O)Cc3ccc(Cl)cc3)c2)c2cnc(N)nc21 | < 8 µL/min/mg | 3.7 | > 4300 nM | 6.4 ×10⁻⁶ cm/s | 29 µM (≈ 13.9 µg/mL) | 11.2 µL/min | – | – | – | –
CC(C)n1cc(C(=O)c2cc(NC(=O)Cc3ccc(Cl)cc3)ccn2)c2cncc(F)c21 | – | – | – | – | – | – | – | – | – | Drug metabolism (Aldehyde oxidase [6]): Metabolite_Notdetected
CC(C)n1cc(C(=O)c2cncc(NC(=O)Cc3ccc(Cl)cc3)c2)c2cncnc21 | 22 µL/min/mg | 3.7 | 5200 nM | 9.9 ×10⁻⁶ cm/s | 17.5 µM (≈ 7.59 µg/mL) | 37 µL/min | 12 nM | 4 nM | – | –
C[C@H](CO)n1cc(C(=O)c2ccnc(NC(=O)Cc3ccc(C#N)cc3)c2)c2cncnc21 | – | – | – | – | – | – | – | – | – | Drug metabolism (Aldehyde oxidase [9]): Metabolite_Detected; Drug metabolism (Aldehyde oxidase [10]): Metabolite_Notdetected; Drug metabolism (Aldehyde oxidase [11]): Metabolite_Detected
CC(C)n1cc(C(=O)c2cncc(NC(=O)Cn3ccc(C4CC4)n3)c2)c2cncnc21 | 25 µL/min/mg | 2.5 | 11900 nM | 18.4 ×10⁻⁶ cm/s | – | 12 µL/min | 18 nM | 4 nM | 5.8 | efflux ratio (human BCRP [12]): 38
CC(C)n1cc(C(=O)c2cncc(NC(=O)Cn3ccc(C4CC4)n3)c2)c2cnc(N)nc21 | 8 µL/min/mg | 2.5 | 38900 nM | 15.8 ×10⁻⁶ cm/s | 30 µM (≈ 13.3 µg/mL) | 24 µL/min | 8 nM | 5 nM | – | Drug metabolism (Aldehyde oxidase [13]): Metabolite_Notdetected
CC(C)n1cc(C(=O)c2cncc(NC(=O)Cn3ccc(C(F)(F)F)n3)c2)c2cnccc21 | < 8 µL/min/mg | 3 | 1400 nM | 11.3 ×10⁻⁶ cm/s | 7.5 µM (≈ 3.42 µg/mL) | 12 µL/min | 13 nM | 7 nM | – | bioavailability [14]: 16%; clearance [15]: 50 mL/min/kg; half-life [16]: 2.3 h; IC50 [17]: 1600 nM; Vd [18]: 1.5 L/kg; Kp uu at 3 h (in vivo): 0.0083; CL [19]: 70%; Drug metabolism (Aldehyde oxidase [20]): Metabolite_Notdetected; Drug metabolism (Aldehyde oxidase [21]): Metabolite_Detected; Activity [22]: Non-Toxic
CC(C)n1cc(C(=O)c2cncc(NC(=O)Cc3ccc(C#N)cc3)c2)c2c(N)ncnc21 | 22 µL/min/mg | 2.5 | 9700 nM | 12.1 ×10⁻⁶ cm/s | 4.4 µM (≈ 1.93 µg/mL) | 7 µL/min | 73 nM | 8 nM | 27 | Drug metabolism (Aldehyde oxidase [23]): Metabolite_Detected; Drug metabolism (Aldehyde oxidase [24]): Metabolite_Detected; Kp uu at 3 h (in vivo): 0.013; Drug metabolism (Aldehyde oxidase [25]): Metabolite_Detected
CC(C)n1cc(C(=O)c2cncc(NC(=O)Cc3ccc(Cl)cc3)c2)c2cnc(N)nc21 | < 8 µL/min/mg | 4.2 | 16900 nM | 5.2 ×10⁻⁶ cm/s | 12 µM (≈ 5.39 µg/mL) | 14 µL/min | 6 nM | 2 nM | – | Drug metabolism (Aldehyde oxidase [13]): Metabolite_Notdetected
CC(C)n1cc(C(=O)c2cncc(NC(=O)Cn3ccc(C4CC4)n3)c2)c2cncc(F)c21 | 37 µL/min/mg | 3.5 | 11300 nM | 15.4 ×10⁻⁶ cm/s | – | – | 33 nM | 7 nM | 3.8 | –
CC(C)n1cc(C(=O)c2cncc(NC(=O)Cn3ccc(C4CC4)n3)c2)c2cnccc21 | 35 µL/min/mg | 2.7 | 1400 nM | 19.8 ×10⁻⁶ cm/s | – | 23 µL/min | 17 nM | 5 nM | 12.5 | –
CC(C)n1cc(C(=O)c2ccnc(NC(=O)Cc3ccc(F)cc3F)c2)c2c(N)ncnc21 | 23 µL/min/mg | 4.3 | 8300 nM | 24.1 ×10⁻⁶ cm/s | 13.6 µM (≈ 6.13 µg/mL) | – | 3 nM | – | 10.9 | efflux ratio (human BCRP [12]): 10.9
